Source: patent US10669268B2, “Bicyclic derivatives” (Hoffmann-La Roche Inc., priority 2012, dated 2020)

Target: ATX (human His-tagged) (Homo sapiens (Human), UniProt Q13822)
Assay: Human ATX enzyme inhibition assay (fluorescence quenching, MR121 substrate)
Type: biochemical
Settings: 30 nM ATX, 1 μM MR121 substrate, 30° C., pH 8.0
Procedure, shortened: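 Tris-HCl buffer at pH 8.0 contained 140 mM NaCl, 5 mM KCl, 1 mM each CaCl2 and MgCl2, and 0.01% Triton X-100. The MR121 substrate (1 μM final) was incubated with enzyme for 15 min at 30 °C, and activity was read by fluorescence quenching.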

SMILES | IC50 [nM]
O=C(/C=C/c1ccc(C(F)(F)F)cc1)N1C[C@@H]2CN(C(=O)c3ccc4[nH]nnc4c3)C[C@H]2C1 [Example 15.58] | 5
O=C(CCc1ccc(C(F)(F)F)cc1)N1C[C@@H]2CN(C(=O)c3ccc4[nH]nnc4c3)C[C@H]2C1 [Example 15.59] | 11
CN(Cc1cnn[nH]1)C(=O)N1C[C@H]2CN(C(=O)CCc3ccc(OC(F)(F)F)cc3)C[C@H]2C1 [Example 15.60] | 1040
CN(Cc1cnn[nH]1)C(=O)N1C[C@H]2CCN(C(=O)/C=C/c3ccc(OC(F)(F)F)c(F)c3)CC[C@H]2C1 [Example 15.61, (3aR,8aS)-N-((1H-1,2,3-triazol-5-yl)methyl)-6-((E)-3-(3-fluoro-4-(trifluoromethoxy)phenyl)-acryloyl)-N-methyloctahydro-pyrrolo[3,4-d]azepine-2(1H)-carboxamide] | 54
O=C(CCc1ccc(C(F)(F)F)nc1)N1C[C@@H]2CN(C(=O)c3ccc4[nH]nnc4c3)C[C@H]2C1 [Example 15.62] | 68
O=C(COc1ccc(OC(F)(F)F)cc1)N1C[C@@H]2CN(C(=O)c3ccc4[nH]nnc4c3)C[C@H]2C1 [Example 15.63] | 12
Cc1cc(OCC(=O)N2C[C@@H]3CN(C(=O)c4ccc5[nH]nnc5c4)C[C@H]3C2)c(C(C)C)cc1Cl [Example 15.64] | 5
O=C(CCc1ccc(-c2ccccc2)cc1)N1C[C@@H]2CN(C(=O)c3ccc4[nH]nnc4c3)C[C@H]2C1 [Example 15.65] | 3
O=C(/C=C/c1ccc(F)cc1C(F)(F)F)N1CC[C@@H]2CN(C(=O)c3ccc4[nH]nnc4c3)C[C@@H]2CC1 [Example 15.66, (E)-1-((3aR,8aS)-2-(1H-benzo[d][1,2,3]triazole-5-carbonyl)octahydro-pyrrolo[3,4-d]azepin-6(7H)-yl)-3-(4-fluoro-2-(trifluoromethyl)phenyl)-prop-2-en-1-one] | 13
Cc1cc(OCC(=O)N2C[C@@H]3CN(C(=O)c4ccc5[nH]nnc5c4)C[C@@H]3C2)c(C(C)C)cc1Cl [Example 15.67] | 14
CS(=O)(=O)c1ccc(/C=C/C(=O)N2CC[C@@H]3CN(C(=O)c4ccc5[nH]nnc5c4)C[C@@H]3CC2)cc1 [Example 15.68] | 171
O=C(/C=C/c1ccc(SC(F)(F)F)cc1)N1CC[C@@H]2CN(C(=O)c3ccc4[nH]nnc4c3)C[C@@H]2CC1 [Example 15.69, (E)-1-((3aR,8aS)-2-(1H-benzo[d][1,2,3]triazole-5-carbonyl)octahydropyrrolo[3,4-d]azepin-6(7H)-yl)-3-(4-(trifluoromethylthio)phenyl)prop-2-en-1-one] | 8
O=C(/C=C/c1ccc(OC(F)(F)F)cc1)N1CC[C@@H]2CN(C(=O)c3ccc4[nH]nnc4c3)C[C@@H]2CC1 [Example 15.70] | 7
O=C(COc1cccc(OC(F)(F)F)c1)N1C[C@@H]2CN(C(=O)c3ccc4[nH]nnc4c3)C[C@@H]2C1 [Example 15.71] | 1360
O=C(/C=C/c1cccc(OC(F)(F)F)c1)N1CC[C@@H]2CN(C(=O)c3ccc4[nH]nnc4c3)C[C@@H]2CC1 [Example 15.72] | 15
O=C(/C=C/c1cccc(OC(F)(F)F)c1)N1C[C@H]2CCN(C(=O)c3ccc4[nH]nnc4c3)C[C@@H]2C1 [Example 15.73] | 116
O=C(/C=C/c1ccc(OC(F)(F)F)cc1)N1C[C@H]2CCN(C(=O)c3ccc4[nH]nnc4c3)C[C@@H]2C1 [Example 15.74] | 12

SMILES | IC50 [nM]
O=C(/C=C/c1ccc(OC(F)(F)F)c(Cl)c1)N1C[C@H]2CCN(C(=O)c3ccc4[nH]nnc4c3)C[C@@H]2C1 [Example 15.75] | 5
O=C(/C=C/c1cc(Cl)cc(Cl)c1)N1C[C@H]2CCN(C(=O)c3ccc4[nH]nnc4c3)C[C@@H]2C1 [Example 15.76] | 13
O=C(/C=C/c1ccc(-c2ccccc2)nc1)N1C[C@@H]2CN(C(=O)c3ccc4[nH]nnc4c3)C[C@H]2C1 [Example 15.77] | 8
O=C(/C=C/c1ccc(C(F)(F)F)cn1)N1C[C@@H]2CN(C(=O)c3ccc4[nH]nnc4c3)C[C@H]2C1 [Example 15.78, (E)-1-[(3aR,6aR)-5-(1H-benzotriazole-5-carbonyl)-hexahydro-pyrrolo[3,4-c]pyrrol-2-yl]-3-(5-trifluoromethyl-pyridin-2-yl)-prop-2-en-1-one] | 9
O=C(/C=C/c1ccc(-c2ccncc2)cc1)N1C[C@@H]2CN(C(=O)c3ccc4[nH]nnc4c3)C[C@H]2C1 [Example 15.79, (E)-1-[(3aR,6aR)-5-(1H-benzotriazole-5-carbonyl)-hexahydro-pyrrolo[3,4-c]pyrrol-2-yl]-3-(4-pyridin-4-yl-phenyl)-prop-2-en-1-one] | 135
O=C(/C=C/c1ccc(-c2cccnc2)cc1)N1C[C@@H]2CN(C(=O)c3ccc4[nH]nnc4c3)C[C@H]2C1 [Example 15.80, (E)-1-[(3aR,6aR)-5-(1H-benzotriazole-5-carbonyl)-hexahydro-pyrrolo[3,4-c]pyrrol-2-yl]-3-(4-pyridin-3-yl-phenyl)-prop-2-en-1-one] | 60
O=C(/C=C/c1ccc(-c2ccccn2)cc1)N1C[C@@H]2CN(C(=O)c3ccc4[nH]nnc4c3)C[C@H]2C1 [Example 15.81, (E)-1-[(3aR,6aR)-5-(1H-benzotriazole-5-carbonyl)-hexahydro-pyrrolo[3,4-c]pyrrol-2-yl]-3-(4-pyridin-2-yl-phenyl)-prop-2-en-1-one] | 19
O=C(/C=C/c1ccc(-c2ccccc2)cn1)N1C[C@@H]2CN(C(=O)c3ccc4[nH]nnc4c3)C[C@H]2C1 [Example 15.84, (E)-1-[(3aR,6aR)-5-(1H-benzotriazole-5-carbonyl)-hexahydro-pyrrolo[3,4-c]pyrrol-2-yl]-3-(5-phenyl-pyridin-2-yl)-prop-2-en-1-one] | 12
O=C(CCc1ccc(-c2ccccc2)nc1)N1C[C@@H]2CN(C(=O)c3ccc4[nH]nnc4c3)C[C@H]2C1 [Example 15.85] | 29
CC(C)c1ccccc1OCC(=O)N1C[C@@H]2CN(C(=O)c3ccc4[nH]nnc4c3)C[C@H]2C1 [Example 15.86] | 19
O=C(COc1ccccc1C(F)(F)F)N1C[C@@H]2CN(C(=O)c3ccc4[nH]nnc4c3)C[C@H]2C1 [Example 15.87] | 103
O=C(COc1ccccc1-c1ccccc1)N1C[C@@H]2CN(C(=O)c3ccc4[nH]nnc4c3)C[C@H]2C1 [Example 15.88] | 27
O=C(/C=C/N1C[C@@H]2CN(C(=O)[C@@H]3CCc4[nH]nnc4C3)C[C@H]2C1)c1ccc(OC(F)(F)F)cc1 [Example 15.89] | 7
O=C(COc1ccc(OC(F)(F)F)cc1Cl)N1C[C@@H]2CN(C(=O)c3ccc4[nH]nnc4c3)C[C@H]2C1 [Example 15.91] | 12
O=C(COc1ccccc1-n1cccc1)N1C[C@@H]2CN(C(=O)c3ccc4[nH]nnc4c3)C[C@H]2C1 [Example 15.92] | 249
COc1cc(C#N)ccc1OCC(=O)N1C[C@@H]2CN(C(=O)c3ccc4[nH]nnc4c3)C[C@H]2C1 [Example 15.93] | 921
N#Cc1ccc(OCC(=O)N2C[C@@H]3CN(C(=O)c4ccc5[nH]nnc5c4)C[C@H]3C2)cc1 [Example 15.94] | 1020
